In US8808706B2, “Arthrospira-based compositions and uses thereof” (Biovite Australia Pty. Ltd., priority 2004, dated 2014):

System: Trichophyton mentagrophytes
Assay: Inhibitory test, filter paper disc on newly inoculated plate
Type: cell-based
Details: FIG. 20
Description: Sabouraud's liquid medium was inoculated with the chosen pathogen. The broths were then incubated for one week at 28° C. […] Monographed actives not already in a cream base were mixed with a respective cream base. […] Up to four different discs were placed on a plate. The plate was then incubated for 24-48 hours at the appropriate temperature depending on the pathogen. Photos were then taken at the completion of the 24-48 hours.

With `Clc1ccc(COC(Cn2ccnc2)c2ccc(Cl)cc2Cl)c(Cl)c1` (stereo not shown) [miconazole] the regrowth into clearance was “became encroached by regrowth”.
